Experiments:
[1] = tested on: HL-60 promyelocytic leukemia cells; conditions: HL-60 leukemia cells
[2] = tested on: human carcinoma xenografts; assay: Human carcinoma xenografts in nude mice (all models); type: in vivo; conditions: doses equivalent to hu3S193-AcBut-CM; earlier experiments, data not shown
Method: (§1) The antitumor efficacy of calicheamicin conjugated to anti-Lewis Y antibodies was evaluated against human carcinoma xenografts established subcutaneously (SC) in nude mice. The evaluated xenografts included carcinomas that had either high or low expression of the Lewis Y antigen and carcinomas from breast, colon, lung, and prostate. Mice bearing solid tumors with an average mass of 150 to 300 mg were randomized to various treatment groups.
(§2) The efficacy in vivo of CMD-193 was tested on subcutaneous xenografts from gastric (N87), lung (L2987), cervical/epidermoid (A431/Le^y) and colon (LS174T and LOVO) carcinomas. Unless indicated otherwise, all conjugates and controls were injected intraperitoneally according to Q4DX3 schedule. To monitor for tumor targeting due to the carrier function of immunoglobulin, CMA was used as a negative control. Based on the studies described below, a dosage of 15 mg/kg of CMD-193 (equivalent to a conjugated antibody protein dosage in the range of 562 to 803 mg/m^2) was considered to be the minimum efficacious dose (MED).

[3] = tested on: MX1 breast carcinoma xenografts; assay: MX1 breast carcinoma xenografts; type: in vivo, nude mice; conditions: MX1, at least 35 days
Method: The effect of CMD-193 on the growth of established xenografts of carcinomas that had low expression of the Lewis Y antigen was also examined in MX1 breast carcinoma. CMA-676 was used as a nonbinding control conjugate. Nude mice explanted with MX1 breast carcinoma were treated with various dosages of CMD-193 (40 to 240 mg/kg) or CMA-676 (a negative control). Tumor growth was recorded for at least 35 days. In contrast, CMA-676 was effective only at the highest dosages (160 mg/kg) tested.

[4] = tested on: N87 gastric carcinoma xenografts; assay: N87 gastric carcinoma xenografts; type: in vivo, nude mice; conditions: 150 mm^3 xenografts
Method: as §1
(§3) The efficacy in vivo of hu3S193-AcBut-CM was tested on subcutaneous xenografts from gastric (N87, FIG. 3), prostate (LNCaP, FIG. 4) and colon (LOVO, FIGS. 5 and 6) carcinomas. Subcutaneous tumors of N87, LOVO and LNCaP were grown in athymic nude mice (Charles River, Wilmington, Mass.). Female mice of 1.5 to 3 months old were injected with respectively 5×10^6 N87 or 10^7 LOVO cells per mouse. LNCaP cells were injected in male nude mice that were 3 months old. To grow tumors, N87 and LNCaP cells had to be mixed (1:1, vol/vol) with […]® (Collaborative Biomedical Products, Belford, Mass.) prior to injection. Two perpendicular diameters of the tumor were measured at least once a week by means of calipers. The tumor volume was calculated according to the formula of Attia & Weiss: A^2×B×0.4.
Unless indicated otherwise, 3 doses of each conjugate and control were given intraperitoneally with an interval of 4 days (Q4Dx3). […]

[5] = tested on: LS174T colon carcinoma xenografts; assay: LS174T colon carcinoma xenografts; type: in vivo, nude mice
Method: as §2
Mice bearing LS174T xenografts of 150 mm^3 were treated with a control conjugate (CMA), PBS or CMD. Mice in each group received three doses i.p. The amount of each dose in calicheamicin equivalents is specified in the legends. Conjugates and controls were injected at day 1, 5 and 9. LS174T tumors proliferated so fast that in the control group all the mice had to be killed within a 51-day period because of the large tumor burden (>2.5 cm^3). In the group treated with 4 ug cal.eq. CMD (Q4DX3), 3 out of five mice were killed within 44 days because of a large tumor burden (1/3) or because of necrosis of the tumor (2/3). Of the other two mice one remained tumor-free for 125 days while the other one had developed a small tumor. […] CMD (Q4DX3) or 4 ug cal.eq CMA (Q4DX3). […]

[6] = tested on: LOVO colon carcinoma xenografts; assay: LOVO colon carcinoma xenografts; type: in vivo, nude mice; conditions: for tumor inhibition of LOVO xenografts: hu3S193-AcBut-CM experiments (FIGS. 5, 6)
Method: as §3
Unless indicated otherwise, 3 doses of each conjugate and control were given intraperitoneally with an interval of 4 days (Q4Dx3). In vivo, hu3S193-AcBut-CM inhibited tumor growth in these three separate models. Hu3S193-AcBut-CM cured mice from gastric carcinoma xenografts (N87) having high expression of Lewis Y antigen (FIG. 3). […] In the LOVO model, the efficacy of hu3S193-AcBut-CM was improved by increasing the amount of the conjugate (FIG. 5).
Mice bearing LOVO xenografts of 100 mm^3 were treated with control conjugates (RITUXAN-AcBut-CM, FIG. 5A), PBS (FIGS. 5A and 5B), hu3S193 (FIG. 5B) or hu3S193-AcBut-CM (FIG. 5B). Except for the group treated with Hu3S193-AcBut-CM at 4 μg/dose, mice in each group received three doses i.p. The amount of each dose in calicheamicin equivalents is specified in the legend. Conjugates and controls were injected at day 1, 5 and 9. The groups were designated as follows: hu3S193-AcBut-CM, received an additional regimen of three doses at day 43, 47 and 51. The number of mice per group (n) is reported in C. Differences in tumor size at day 30 were probed for statistical significance by a 2-tailed Students t-test.
Mice bearing LOVO xenografts of 100 mm^3 were treated with control conjugates: RITUXAN-AcBut-CM and CMA (FIG. 6A), PBS or hu3S193-AcBut-CM (FIG. 6B). Mice in each group received three or four doses i.p. The amount of each dose in calicheamicin equivalents is specified in the legend. Conjugates and controls were injected at day 1, 5 and 9. The group designated: hu3S193-AcBut-CM*, received an additional dose at day 13. The number of mice per group equals n and p-values of a 2-tailed Students t-test were determined.
Mice bearing LOVO xenografts were tested to investigate the potential benefits of regimens different from 4 μg cal.eq./dose/mouse at Q4DX3. Mice bearing LOVO xenografts of approximately 100 mm^3 were treated with PBS, G193 or various regimens of a control conjugate CMA or CMD. The amount of each dose in calicheamicin equivalents is specified in the legends. The LOVO-model was chosen for this type of experiment because of the marginal efficacy seen with 4 μg cal.eq. at Q4DX3.

[7] = tested on: L2987 lung carcinoma xenografts; assay: L2987 lung carcinoma xenografts; type: in vivo, nude mice; conditions: 0.375 to 3 μg/dose/mouse, Q4DX3 i.p.
Method: as §2
Mice bearing L2987 xenografts of 100 mm^3 were treated with a control conjugate (CMA), PBS or CMD. Mice in each group received three doses i.p. The amount of each dose in calicheamicin equivalents is specified in the legends. Conjugates and controls were injected at day 1, 5 and 9. […] The error bars represent the standard deviation of the average tumor volume at each time point. The number of mice (expressed as a percentage) with a tumor size smaller than the initial tumor average of each group was plotted as a function of the observation period in FIG. 12. Treatment with CMA (FIG. 12A) or CMD (FIG. 12B) is compared to treatment with vehicle control (PBS).
For the experiment shown in FIG. 13, 10 mice received L2987 xenografts. […]

Compound | metabolites produced [1] | tumor inhibition by free CM [2] | major biotransformation pathways (cytosol) | metabolites after incubation (human liver microsomes and cytosol) | biotransformation pathways (microsomes) | lowest dosage with significant growth inhibition [3] | growth inhibition versus hu3S193-AcBut-CM or CMD at equivalent doses [4] | cures ([5]; 2 ug cal.eq. Q4DX3) | cures ([5]; 4 ug cal.eq. Q4DX3) | efficacy on LOVO xenografts ([6]; CMD experiment (FIG. 18)) | tumor inhibition of LOVO xenografts [6] | growth of L2987 xenografts [7] | period of statistically significant difference in tumor size from PBS ([6]; 2 μg cal.eq. per mouse Q4Dx3) | period of statistically significant difference in tumor size from PBS ([6]; 4 μg cal.eq. per mouse Q4Dx3)
CCN(C(C)=O)[C@H]1CO[C@@H](O[C@H]2[C@H](O[C@H]3C#C/C=C\C#C[C@]4(O)CC(=O)C(NC(=O)OC)=C3/C4=C\CSSC(C)(C)CC(=O)NN)O[C@H](C)[C@@H](NO[C@H]3C[C@H](O)[C@H](SC(=O)c4c(C)c(I)c(O[C@@H]5O[C@@H](C)[C@H](O)[C@@H](OC)[C@H]5O)c(OC)c4OC)[C@@H](C)O3)[C@@H]2O)C[C@@H]1OC [CM, N-acetyl gamma calicheamicin dimethyl hydrazide] | Several metabolites, including NAc-epsilon calicheamicin and its isomer | never inhibited | formation of NAc-epsilon calicheamicin and it's derivatives | Many metabolites were found | hydroxylation and demethylation |  |  |  |  |  |  |  |  | 
CMA-676: calicheamicin conjugate of an anti-CD33 antibody, used as control conjugate |  |  |  |  |  | 160 mg/kg | inhibited growth significantly less | one out of the five | No cures | lack of efficacy | negligible tumor inhibition | significant growth inhibitory effect |  | 
RITUXAN-AcBut-CM: calicheamicin-conjugate of RITUXAN (anti-CD20), control conjugate |  |  |  |  |  |  |  |  |  |  | negligible tumor inhibition |  | 16 days | 16 days
